Molecules are shown by their SMILES.

In turn, `O=C(Nc1ccccc1)C(CBr)CBr` returned a melting point of 143 to 144 °C.
With `CSC(SC)=C(C#N)C(=O)NC1CCCCC1` the figure was 103 to 105 °C; with `Cc1nc2c3c(c(C(N)=O)cc2n1C)CCC(c1ccccc1)N3` (stereo not drawn), 311 to 319 °C; with `CNS(=O)(=O)c1c(C)n(C)c2cc(F)ccc2c1=O`, 184 °C.
Compound `COc1ccc(-c2nc(CCl)co2)s1` registered a melting point of 64 to 65 °C.
`CCCc1[nH]c(=O)[nH]c(=O)c1N1CCN(Cc2ccccc2)CC1` registered a melting point of 233 to 235 °C.
Turning to `CCSc1cc2c(cc1OC)CCn1c-2cc2c1C(=O)N(C(C)(C)C)CCCC2`, the melting point is 124 to 125 °C.
Take `Cc1cc(N(N)c2ccccc2)nc(N)n1`: the melting point is 173 to 174 °C.
With `CC1=C(C(=O)OCCN(C)C)C(c2cccc([N+](=O)[O-])c2)C(C(=O)OCC2CC2)=C(C)N1` (stereo not drawn), the melting point lay in the range of 125 to 126 °C.
On to `CCOc1ccc2c(c1)C(=O)N(CCCCBr)S2(=O)=O`, for which the melting point was in the range of 105 to 108 °C.
`CCOC(=O)c1cc(-c2ccccc2)nn1Cc1ccc(Cl)cc1Cl`: the melting point fell in the range of 104 to 107 °C.
On to `CCCCCCOc1nc(-c2ccccc2)sc1-c1ccccc1`, for which the melting point was in the range of 70 to 72 °C.
In the case of `CCC(O)Cn1c(Cl)nc2ccccc21` (stereo not drawn), the melting point was found to be 126 °C.
The compound `CCCn1c(=O)c2[nH]c(/C=C/c3ccc4c(c3)OCO4)nc2n(CCC)c1=O` displayed a melting point above 270 °C.
The compound `CC(C)(C)OC(=O)CCc1cc(S(C)(=O)=O)cc(-c2nc(=O)c3ccc(Cl)cc3s2)n1` gave a melting point of 184 °C.
`CCC(CC)c1ccc(Cl)c2nc(Nc3ccc(C)cc3Br)n(CCCCO)c12` showed a melting point of 115 to 118 °C.
As for `CCc1ccc2oc(C(=O)Nc3ccc(-c4ccc(S(=O)(=O)NC(C(=O)OC)C(C)C)cc4)cc3)c(C)c2c1O` (stereo not drawn), the melting point lay in the range of 75 to 80 °C.
Regarding `O=c1cc(-c2ccccc2)oc2ccc(OCCCCCCCN3CCC(O)CC3)cc12`, the melting point lay in the range of 135 to 136 °C.
In turn, `Cc1cc(NC(=O)CCC(=O)O)ccc1-n1c(C)nc2ccccc2c1=O` gave a melting point of 228 to 230 °C.
`CCOC(=O)CNc1ncccc1NC(=O)c1ccc(OC)cc1` displayed a melting point of 130 to 131 °C.
With `COc1ccc2c(c1)-c1nn(CCO)c3cccc(c13)N2`, the melting point is 275 to 276 °C.
With `Cc1cc(C)c(S(=O)(=O)N(C)c2ccccc2CSc2nccn2-c2ccccn2)c(C)c1` the figure was 131 to 133 °C.
Then `CC1(C)c2c(Cl)cccc2S(=O)(=O)N1CC=O`, with 156 °C; and `O=C(Nc1ccc(Cl)cn1)c1cc(Cl)ccc1NCC1CCN(C2CCCCCC2)CC1`, with 170 to 172 °C.
With `CCCS(=O)c1ccc2[nH]c(NC(=O)OC)nc2c1` (stereo not drawn) the figure was 215 to 216 °C; with `CCc1nc(C(=O)NCCc2ccc(S(N)(=O)=O)cc2)no1`, 159 to 160 °C.
In turn, `COc1ccc(N=Nc2ccc(O)c(C(N)=O)c2)cc1` gave a melting point of 231 to 233 °C.
Then `CCCC/C=C\c1c([C@H](O)[C@H](CCCC)NC(=O)[C@H](CC(C)C)NC(=O)OCc2ccccc2)c1=O`, with 87 to 94 °C.
`CCCCOC(=O)c1ccc(N2CCN(CCCS(=O)(=O)O)CC2)cc1` returned a melting point of 232 to 234 °C.
With `CC1=NN(c2cccc(S(N)(=O)=O)c2)C(=O)C1=c1[nH]c(=c2[nH]c(=C3C(=O)N(c4cccc(S(N)(=O)=O)c4)N=C3C)c3ccccc23)c2ccccc12` the figure was above 300 °C; with `COCCc1sc2ncnc(N)c2c1-c1ccc(NC(=O)c2ccccc2)cc1`, 200 to 202 °C; with `NCCCCCC(N)=O`, 49 to 50 °C.
Compound `O=C(O)c1nc2n(n1)-c1ccccc1N(c1cccc(C(F)(F)F)c1)C2` gave a melting point of 204 to 206 °C.
Then `CC(C)(C)C(=O)Nc1cccc(-c2ccnc3c(C(=O)c4ccco4)cnn23)c1`, with 203 to 204 °C; and `C=CCc1cc2c(cc1O)CCC(=O)N2CC=Cc1ccccc1`, with 199 to 203 °C.
`Cn1c([N+](=O)[O-])cnc1-c1nc2ccccc2[nH]1` came in with a melting point of 257 °C.
Turning to `CC(C)(O)C(O)c1ccc(C(=O)CCC(=O)/C(=C/C2CCOCC2)c2ccc(S(=O)(=O)C3CC3)cc2)nc1` (stereo not drawn), the melting point lay within 102 to 104 °C.
As to `CCCCCCCCCCCCCCCCCC(=O)NCNC(=O)CCSc1ccc(O)cc1`, the melting point is 172 °C.
In turn, `CN(c1cc(OCCCS(C)(=O)=O)cc2cc(C3=NCC(CN4CCOCC4)S3)[nH]c12)S(=O)(=O)c1ccccn1` (stereo not drawn) had a melting point of 168 to 169 °C.
Compound `CCCn1c(=O)c2[nH]c(N3CCOCC3)nc2n(CCC)c1=O` returned a melting point of 251 to 252 °C.
With `COCS[C@H](C)[C@](O)(Cn1cncn1)c1ccc(Cl)cc1` the figure was 122 °C; with `O=C1COc2ccc(NCC(=O)N3CCC(Cc4ccc(F)cc4)CC3)cc2N1`, 220 to 223 °C.
In turn, `CN(C)Cc1cccc(OCCCNc2nc(N)nn2C)c1` displayed a melting point of 95 to 96.5 °C.
Then `CCCCC(=O)Nc1c(C)c(C)c2c(c1C)C(c1ccc(C)cc1)C(C)(C)O2` (stereo not drawn), with 156 to 157 °C; and `COC(=O)NS(=O)(=O)c1ccc(NC(=O)COc2ccc(Cl)cc2C)cc1`, with 184 to 185 °C.
Turning to `CC(C)C1(C)Cc2cc(O)c(Cl)c(Cl)c2C1=O` (stereo not drawn), the melting point is 215 °C.
With `Nc1ccc(CCOC(=O)Nc2ccc(Nc3ccccc3)cc2)cc1` the figure was 140 °C.
`CCCCCC(C)(O)C=CC1CCC(=O)C1CCCCCCC(=O)O` (stereo not drawn) yielded a melting point of 61 to 62 °C.
Compound `CCC(Oc1cc(N)c(Cl)cc1C(=O)NCCN(CC)CC)C(C)=O` (stereo not drawn) yielded a melting point of 75 to 78 °C.
`CC1=C(C(=O)OC(C)C)C(c2cccc([N+](=O)[O-])c2)N(C(=O)NCc2ccccc2)C(=O)N1` (stereo not drawn) showed a melting point of 184 to 185 °C.
The compound `O=C1c2ccccc2-n2cnc(-c3nc(CN4Cc5ccccc5C4)no3)c2[C@@H]2CCN12` came in with a melting point of 210 to 213 °C.
On to `CCC1(Cc2ccccc2)C(=O)N(C)C(=Cc2ccccc2C#N)C(=O)N1C` (stereo not drawn), for which the melting point amounted to 120 °C.
Then `O=c1[nH]c2cc(Cl)c(Cl)c(Cl)c2o1`, with 253 to 254 °C; and `Oc1ccc(-c2ncnc(C(F)(F)F)c2Cl)cc1`, with 149 to 151 °C; and `CCOC(=O)C1=C(C)NC(COCCN2C(=O)c3ccccc3C2=O)=C(C(=O)OC)C1c1cccc(Cl)c1Cl` (stereo not drawn), with 165 °C.
For the compound `O=C1CCC(=NNc2ccccc2)c2ncccc2N1`, the melting point worked out at 206 °C.
In the case of `CNc1ccc(CC(=O)C(=O)O)cc1`, the melting point is 210 °C.
As to `CCOC(=O)c1cn(CCc2ccccc2)c2occc2c1=O`, the melting point was 139 to 140 °C.
`CCN(C1CC(C)(C)Oc2ccc(OCc3cc(OC)ccn3)cc21)S(C)(=O)=O` (stereo not drawn) gave a melting point of 87 to 89 °C.
Turning to `CCSC(C)C(=O)N(CC)c1cn(-c2cccnc2)nc1Cl` (stereo not drawn), the melting point is 65 to 66 °C.
Compound `CC(C)(O)CC(=O)N[C@H]1CC[C@H](CCN2CCN(c3nccc4c3CCO4)CC2)CC1` displayed a melting point of 208 °C.
The compound `NS(=O)(=O)c1cccc(-c2cccc(-c3nc(-c4ccc(Cl)cc4Cl)cc(C(F)(F)F)n3)c2)c1` showed a melting point of 202 °C.
With `CSc1ncc(C(=O)NCCO)c(Nc2ccc3[nH]ncc3c2)n1` the figure was above 270 °C; with `CCOCCOC(=O)C1=C(C)N(COCC)C(C)=C(C(=O)OCCOCC)C1c1cccc([N+](=O)[O-])c1`, 63 to 63.5 °C; with `Nc1cccc(C(=O)O)c1S`, 255 to 258 °C.
The compound `COC(=O)CC(=O)/C=C/c1c(-c2ccc(F)cc2OC)n(C(C)C)c(=O)c2ccccc12` gave a melting point of 164 to 166 °C.
For the compound `Cc1nc(Sc2ncccc2C(=O)O)sc1CC(=O)O`, the melting point fell in the range of 233 to 235 °C.
Compound `CC(C)(C)c1cc(Cn2nc(-c3ccccc3)oc2=S)cc(C(C)(C)C)c1O` showed a melting point of 166 °C.
In the case of `O=c1[nH]c2c(c3nc(-c4ccccc4)nn13)CN(Cc1ccccc1)CC2`, the melting point is 257 to 259 °C.
Then `O=C(c1cccs1)c1cnn2c(-c3cccc(-c4nnn(CCN5CCCCC5)n4)c3)ccnc12`, with 117 °C; and `COC(=O)c1c(Cl)cc(Cl)cc1NC(=O)CSc1ccc(N)cc1`, with 114 to 116 °C.
In the case of `Cn1c(SCc2ccccc2)nc2c(c1=O)NCN2C(c1ccccc1)(c1ccccc1)c1ccccc1`, the melting point lay within 255 to 258 °C.
With `CC(=CC(=O)O)c1ccc([N+](=O)[O-])cc1` the figure was 167 to 169 °C; with `CCCc1c(C(=O)NCc2ccc3cc(OCC(=O)OC)ccc3c2)cnn1-c1ccccc1`, 145 to 146 °C.
The compound `Cc1cccc(-n2nc(C)cc2-c2cc[nH]c(=O)c2)c1` displayed a melting point of 182 to 183 °C.
`CCOc1nn(-c2cc(C(F)(F)F)ccn2)cc1CCCO` yielded a melting point of 73 to 74 °C.
For `COc1ccc(NC(=N)c2ccccc2)cc1NC(=O)/C=C/c1ccccc1C(F)(F)F`, the melting point was in the range of 208 to 210 °C.
`CN(C)S(=O)(=O)c1ccc(C(F)(F)F)cc1S(N)(=O)=O` showed a melting point of 189 to 191 °C.
Then `N=C(N)N1CCc2[nH]cnc2C1`, with 310 °C; and `CCCc1nc2c(N)nc3ccccc3c2n1CCC1(O)CCOCC1`, with 181 to 183 °C; and `COC(=O)C(O)CC1CCC(=O)N1` (stereo not drawn), with 87 to 90 °C.
In turn, `COc1c(C(O)CNC(C)(C)Cc2ccccc2)ccc(O)c1O` (stereo not drawn) came in with a melting point of 149 to 150 °C.
`COc1ccc(-c2cn([C@H]3CN4CCC3CC4)nn2)cc1` registered a melting point of 122 °C.
With `Cc1ccc(-n2c(-c3ccc(-c4ccc(-c5nc6c7ccccc7c7ccccc7c6n5-c5ccc(C)cc5)cc4)cc3)nc3c4ccccc4c4ccccc4c32)cc1` the figure was 405 °C.
For the compound `O=S(=O)(Nc1cccc(OCc2csc(-c3ccccc3)n2)c1)C(F)(F)F`, the melting point fell in the range of 113 to 115 °C.
In turn, `CCOC(=O)Cc1c(Cl)cnc2c(NC(=O)c3c(Cl)cccc3Cl)cccc12` showed a melting point of 161 °C.
Then `CCCc1ccc2ncc(C(=O)NCc3ccc(Cl)cc3)c(O)c2c1`, with 225 to 227 °C; and `CCCCCCc1cc(C(=O)O)c(C)o1`, with 59 to 60 °C.

These data come from a melting point compilation (Tetko et al.; mined from patent text by program, amines drawn as free bases though some values may be those of a salt).
